# Assay results taken from PMC11788587, “Validating Low‐Dose Iohexol as a Marker for Glomerular Filtration Rate by In Vitro and In Vivo Studies” (Clinical and Translational Science, 2025).
# Biological target: T1, hOATP1B1 (Homo sapiens, UniProt Q9Y6L6)
# T1 construct: expressed in transfected cells; host or cells: 293 cells (control: empty vector)
# T1 sequence (Q9Y6L6 1-691): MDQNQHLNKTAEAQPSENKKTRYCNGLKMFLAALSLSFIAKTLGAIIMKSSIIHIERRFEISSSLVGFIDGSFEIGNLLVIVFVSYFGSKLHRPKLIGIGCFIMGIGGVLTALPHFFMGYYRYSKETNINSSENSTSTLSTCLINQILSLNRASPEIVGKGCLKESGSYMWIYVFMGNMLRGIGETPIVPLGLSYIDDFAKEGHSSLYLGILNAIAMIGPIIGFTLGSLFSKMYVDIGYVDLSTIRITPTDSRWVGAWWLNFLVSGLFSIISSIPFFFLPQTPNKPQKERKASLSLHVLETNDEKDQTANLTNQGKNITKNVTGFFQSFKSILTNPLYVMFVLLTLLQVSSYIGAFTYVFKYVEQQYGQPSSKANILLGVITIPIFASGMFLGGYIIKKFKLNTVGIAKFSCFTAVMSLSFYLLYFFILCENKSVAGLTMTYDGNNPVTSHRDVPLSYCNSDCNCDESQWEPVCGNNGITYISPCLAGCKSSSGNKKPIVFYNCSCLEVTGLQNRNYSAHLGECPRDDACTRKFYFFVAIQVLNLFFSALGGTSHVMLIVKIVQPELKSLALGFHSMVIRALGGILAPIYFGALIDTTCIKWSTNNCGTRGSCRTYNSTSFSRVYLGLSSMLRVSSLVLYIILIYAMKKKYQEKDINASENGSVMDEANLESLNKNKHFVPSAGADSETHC
# Test: Inhibition of hOATP1B1-mediated 3H-estrone sulfate uptake, stably transfected 293 cells
# Assay type: cell-based
# Conditions: substrate 0.01 μM 3H-estrone sulfate, median (95% CI)
# Source text: We characterized the inhibitory potential of iohexol on major drug transporters recommended by regulatory agencies, which were previously assessed in a clinical transporter phenotyping cocktail study. These transporters include hOAT1, hOAT3, hOCT1, hOCT2, hMATE1, hMATE2K, human organic anion transporter polypeptides (hOATP)1B1, hOATP1B3, and human multidrug resistance protein (hMDR)1. Additionally, we investigated whether iohexol is a substrate for any of the renal transporters among these, including hOAT1/3, hOCT1/2, and hMATE1/2K. Cell‐based uptake assays were used to assess the activities of hOAT1/3, hOCT1/2, hMATE1/2K, and hOATP1B1/1B3. Inside‐out membrane vesicle uptake assays were used to evaluate the activity of hMDR1.
# To determine the maximal inhibitory potential of iohexol, intracellular accumulation of a standard substrate was measured with and without the clinically relevant highest concentrations of iohexol. Control inhibitors were tested in each experiment.
# In all subsequent in vitro studies, control experiments were conducted to validate the results. […] Each condition, including cells or vesicles with the transporter and their respective controls, was analyzed in at least three replicates. […]
# Uptake assays were carried out with stably transfected 293 cells expressing hOATP1B1 or hOATP1B3, as well as cells containing an empty vector, using the method described by Hsin CH, et al..^1 For the inhibition assays, cells were incubated with the radiolabeled standard substrates specific to each transporter: 0.01 μM ^3H-estrone sulfate for hOATP1B1, and 0.02 μM ^3H-bromosulphophthalein (BSP) for hOATP1B3. […] The accumulation of radio-labelled probe substrates (^3H) in the cell lysate is determined using a Tri-Carb 2810 liquid scintillation counter (PerkinElmer, Waltham, MA, USA) as described previously.^1 Cellular protein amount was determined in parallel from 6 paired wells per cell line and experimental day, using the Bradford method.^2 The 1X lysis buffer (5X lysis buffer from Promega, diluted 1+4 [v/v] in ddH2O) was used as the lysis buffer. […]
smiles,measurement,setting,value
CC(=O)N(CC(O)CO)c1c(I)c(C(=O)NCC(O)CO)c(I)c(C(=O)NCC(O)CO)c1I (stereo not drawn) [iohexol],Inhibitory effect (% reduction of specific activity),20 mM iohexol,no notable inhibitory effects
same,"inhibition at 1 min, 2 mM","human, stably transfected 293 cells expressing hOATP1B1, probe 3H-estrone sulfate, 2 mM iohexol, read-out: Inhibitory effect (% reduction of specific activity)",-6.9%
same,"inhibition at 1 min, 20 mM","human, stably transfected 293 cells expressing hOATP1B1, probe 3H-estrone sulfate, 20 mM iohexol, read-out: Inhibitory effect (% reduction of specific activity)",5.5%
